Experiments:
Experiment in all cases: relative viability (nuclei count vs DMSO), 5 days (fraction); higher = more cells survive
[1] = compound: Cc1cnc(CNC(=O)c2c(=O)c3ccc(N4CCCN(C)CC4)nc3n3c2sc2ccccc23)cn1 [CX-5461] + CC1(C)CCC(c2ccc(Cl)cc2)=C(CN2CCN(c3ccc(C(=O)NS(=O)(=O)c4ccc(N[C@H](CCN5CCOCC5)CSc5ccccc5)c(S(=O)(=O)C(F)(F)F)c4)cc3)CC2)C1 [Navitoclax] (partner 0.5 µM)
Summary of the method: (§1)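 Relative viability equals treated-well nuclei counts divided by vehicle-well nuclei counts. Counts came from 4× images of lung cancer cell lines grown in 1536-well plates for 5 days after pin-tool dosing on the day after seeding. Dosing used one drug alone or a fixed anchor-drug dose plus five library-drug doses (not always all listed) in √10 steps, and values are medians of duplicate plates.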

[2] = compound: Cc1cnc(CNC(=O)c2c(=O)c3ccc(N4CCCN(C)CC4)nc3n3c2sc2ccccc23)cn1 [CX-5461] + CS(=O)(=O)CCNCc1ccc(-c2ccc3ncnc(Nc4ccc(OCc5cccc(F)c5)c(Cl)c4)c3c2)o1 [Lapatinib] (partner 2 µM)
Summary of the method: as §1

[3] = compound: O=C(Nc1cc(C(F)(F)F)cc(C(F)(F)F)c1)c1cc(Cl)ccc1O [IMD-0354] + CCNC(=O)c1noc(-c2cc(C(C)C)c(O)cc2O)c1-c1ccc(CN2CCOCC2)cc1 [Luminespib] (partner 0.01 µM)
Summary of the method: as §1

[4] = compound: O=C(Nc1cc(C(F)(F)F)cc(C(F)(F)F)c1)c1cc(Cl)ccc1O [IMD-0354] + Cc1nc(Nc2ncc(C(=O)Nc3c(C)cccc3Cl)s2)cc(N2CCN(CCO)CC2)n1 [Dasatinib] (partner 0.075 µM)
Summary of the method: as §1

Q: What does the source list for NCI-H2085?
A: relative viability ([1]; first compound 0.01 µM): 1.21; relative viability ([1]; first compound 0.03162 µM): 1.16; relative viability ([1]; first compound 0.1 µM): 1.02; relative viability ([1]; first compound 0.3162 µM): 1.16; relative viability ([1]; first compound 1 µM): 1.11; relative viability ([2]; first compound 0.01 µM): 0.806; relative viability ([2]; first compound 0.03162 µM): 0.718; relative viability ([2]; first compound 0.1 µM): 0.667; relative viability ([2]; first compound 0.3162 µM): 0.324; relative viability ([2]; first compound 1 µM): 0.615; relative viability ([3]; first compound 0.04 µM): 0.498; relative viability ([3]; first compound 0.1265 µM): 0.41; relative viability ([3]; first compound 0.4 µM): 0.409; relative viability ([3]; first compound 1.265 µM): 0.274; relative viability ([3]; first compound 4 µM): 0.264; relative viability ([4]; first compound 0.04 µM): 0.219; relative viability ([4]; first compound 0.1265 µM): 0.241; relative viability ([4]; first compound 0.4 µM): 0.298; relative viability ([4]; first compound 1.265 µM): 0.195; relative viability ([4]; first compound 4 µM): 0.201

Q: Which results are given for NCI-H1734?
A: relative viability ([1]; first compound 0.01 µM): 0.979; relative viability ([1]; first compound 0.03162 µM): 0.896; relative viability ([1]; first compound 0.1 µM): 0.887; relative viability ([1]; first compound 0.3162 µM): 0.728; relative viability ([1]; first compound 1 µM): 0.761; relative viability ([2]; first compound 0.01 µM): 1.08; relative viability ([2]; first compound 0.03162 µM): 1.12; relative viability ([2]; first compound 0.1 µM): 0.951; relative viability ([2]; first compound 0.3162 µM): 0.553; relative viability ([2]; first compound 1 µM): 0.523; relative viability ([3]; first compound 0.04 µM): 0.201; relative viability ([3]; first compound 0.1265 µM): 0.181; relative viability ([3]; first compound 0.4 µM): 0.2; relative viability ([3]; first compound 1.265 µM): 0.147; relative viability ([3]; first compound 4 µM): 0.143; relative viability ([4]; first compound 0.04 µM): 0.516; relative viability ([4]; first compound 0.1265 µM): 0.4; relative viability ([4]; first compound 0.4 µM): 0.343; relative viability ([4]; first compound 1.265 µM): 0.195; relative viability ([4]; first compound 4 µM): 0.134

Q: Which results are given for NCI-H2126?
A: relative viability ([1]; first compound 0.01 µM): 0.873; relative viability ([1]; first compound 0.03162 µM): 0.863; relative viability ([1]; first compound 0.1 µM): 0.896; relative viability ([1]; first compound 0.3162 µM): 0.815; relative viability ([1]; first compound 1 µM): 0.804; relative viability ([2]; first compound 0.01 µM): 0.786; relative viability ([2]; first compound 0.03162 µM): 0.803; relative viability ([2]; first compound 0.1 µM): 0.727; relative viability ([2]; first compound 0.3162 µM): 0.622; relative viability ([2]; first compound 1 µM): 0.72; relative viability ([3]; first compound 0.04 µM): 0.866; relative viability ([3]; first compound 0.1265 µM): 0.867; relative viability ([3]; first compound 0.4 µM): 0.55; relative viability ([3]; first compound 1.265 µM): 0.27; relative viability ([3]; first compound 4 µM): 0.213; relative viability ([4]; first compound 0.04 µM): 0.587; relative viability ([4]; first compound 0.1265 µM): 0.666; relative viability ([4]; first compound 0.4 µM): 0.387; relative viability ([4]; first compound 1.265 µM): 0.216; relative viability ([4]; first compound 4 µM): 0.237

Q: Which results are given for EMC-BAC-2?
A: relative viability ([1]; first compound 0.01 µM): 1.17; relative viability ([1]; first compound 0.03162 µM): 1.29; relative viability ([1]; first compound 0.1 µM): 1.21; relative viability ([1]; first compound 0.3162 µM): 1.13; relative viability ([1]; first compound 1 µM): 1.14; relative viability ([2]; first compound 0.01 µM): 0.861; relative viability ([2]; first compound 0.03162 µM): 1.04; relative viability ([2]; first compound 0.1 µM): 0.88; relative viability ([2]; first compound 0.3162 µM): 0.693; relative viability ([2]; first compound 1 µM): 0.588; relative viability ([3]; first compound 0.04 µM): 1.28; relative viability ([3]; first compound 0.1265 µM): 1.13; relative viability ([3]; first compound 0.4 µM): 0.537; relative viability ([3]; first compound 1.265 µM): 0.651; relative viability ([3]; first compound 4 µM): 0.284; relative viability ([4]; first compound 0.04 µM): 0.313; relative viability ([4]; first compound 0.1265 µM): 0.313; relative viability ([4]; first compound 0.4 µM): 0.235; relative viability ([4]; first compound 1.265 µM): 0.19; relative viability ([4]; first compound 4 µM): 0.218

— the supplement of paper PMC10307832
